# Source: ChEMBL document CHEMBL2150908, “Discovery of 2-Alkyl-1-arylsulfonylprolinamides as 11β-Hydroxysteroid Dehydrogenase Type 1 Inhibitors” (ACS Med Chem Lett, 2012)
# pIC50: −log10 of the molar value.
# What was measured:
# [1] = Intrinsic clearance in human liver microsomes assessed as per mg of protein; format: ADME, Microsome; details: read-out: CLH
# [2] = molecular target: 11-beta-hydroxysteroid dehydrogenase 1 (Mus musculus) (UniProt P50172); experiment: Inhibition of mouse 11betaHSD1 at 100 nM by scintillation proximity assay
# [3] = molecular target: T1, 11-beta-hydroxysteroid dehydrogenase 1 (Mus musculus, UniProt P50172); experiment: Inhibition of mouse 11betaHSD1 by scintillation proximity assay
# [4] = species: Mus musculus; experiment: Clearance in BALB/c mouse; format: ADME, organism-based; details: in vivo
# [5] = Half life in BALB/c mouse at 1 mg/kg, iv; format: ADME, organism-based; set-up: dose 1 mg/kg, route intravenous; details: in vivo
# [6] = molecular target: T2, 11-beta-hydroxysteroid dehydrogenase 1 (Homo sapiens, UniProt P28845); experiment: Inhibition of human 11betaHSD1 by scintillation proximity assay
# Target sequence in this assay (P28845 whole entry): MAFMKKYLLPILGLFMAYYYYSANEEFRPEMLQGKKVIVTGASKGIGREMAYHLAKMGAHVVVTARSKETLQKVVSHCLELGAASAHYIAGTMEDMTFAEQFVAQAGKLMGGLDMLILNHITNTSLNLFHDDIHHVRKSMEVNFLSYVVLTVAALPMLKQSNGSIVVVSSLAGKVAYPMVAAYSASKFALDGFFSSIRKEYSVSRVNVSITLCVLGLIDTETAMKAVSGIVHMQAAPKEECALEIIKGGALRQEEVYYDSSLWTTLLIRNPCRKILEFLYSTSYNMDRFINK
# [7] = Oral bioavailability in BALB/c mouse at 5 mg/kg; format: ADME, organism-based; details: in vivo
# [8] = Volume of distribution at steady state in BALB/c mouse; format: ADME, organism-based; details: in vivo, read-out: Vdss
# [9] = molecular target: T1, 11-beta-hydroxysteroid dehydrogenase 1; experiment: Inhibition of mouse 11betaHSD1 in 3T3L1 cells assessed as conversion of [1,2-(N)3H]-cortisone to cortisol after 1 hr by liquid scintillation counter; format: cell-based, 3T3-L1
# [10] = Bioavailability in BALB/c mouse at 5 mg/kg, ip; format: ADME, organism-based; details: in vivo
# [11] = AUC (0 to t) in BALB/c mouse at 5 mg/kg, ip; format: ADME, organism-based; set-up: dose 5 mg/kg, route intraperitoneal; details: plasma
# [12] = molecular target: T3, 11-beta-hydroxysteroid dehydrogenase type 2 (Homo sapiens, UniProt P80365); experiment: Inhibition of human 11betaHSD2
# T3 sequence (P80365 whole entry): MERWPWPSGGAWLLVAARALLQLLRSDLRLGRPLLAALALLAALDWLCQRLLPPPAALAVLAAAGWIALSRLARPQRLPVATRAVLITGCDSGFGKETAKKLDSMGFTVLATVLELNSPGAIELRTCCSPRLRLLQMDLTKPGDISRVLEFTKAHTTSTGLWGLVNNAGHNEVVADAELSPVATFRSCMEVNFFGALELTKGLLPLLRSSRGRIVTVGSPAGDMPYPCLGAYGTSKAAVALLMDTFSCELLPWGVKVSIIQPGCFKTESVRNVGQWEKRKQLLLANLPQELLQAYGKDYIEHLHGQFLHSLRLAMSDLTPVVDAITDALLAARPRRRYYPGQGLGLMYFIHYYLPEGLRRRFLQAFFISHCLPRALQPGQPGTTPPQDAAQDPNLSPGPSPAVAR
# [13] = molecular target: T2, 11-beta-hydroxysteroid dehydrogenase 1; experiment: Inhibition of human 11betaHSD1 at 100 nM by scintillation proximity assay
# Target sequence in this assay (P28845 whole entry, looked up): as the sequence (P28845 whole entry) above
# [14] = system: Mus musculus; experiment: Inhibition of 11betaHSD1 in BALB/c mouse using prednisone as substrate assessed as reduction of prednisolone production at 30 mg/kg, ip administered 1 hr prior to substrate addition measured after 2 mins post substrate addition by LC/MS/MS analysis; format: functional; details: route intraperitoneal
# [15] = system: Mus musculus; experiment: Inhibition of 11betaHSD1 in BALB/c mouse using prednisone as substrate assessed as reduction of prednisolone production at 3 mg/kg, ip administered 1 hr prior to substrate addition measured after 2 mins post substrate addition by LC/MS/MS analysis; format: functional; details: route intraperitoneal
# [16] = system: Mus musculus; experiment: Inhibition of 11betaHSD1 in BALB/c mouse using prednisone as substrate assessed as remaining prednisolone level at 10 mg/kg, ip administered 1 hr prior to substrate addition measured after 2 mins post substrate addition by LC/MS/MS analysis; format: functional; details: route intraperitoneal
# [17] = Plasma concentration in BALB/c mouse at 10 mg/kg, ip administered 1 hr prior to prednisone addition measured after 2 mins post prednisone addition by LC/MS/MS analysis; format: ADME, organism-based; set-up: dose 10 mg/kg, route intraperitoneal
# [18] = system: Mus musculus; experiment: Inhibition of 11betaHSD1 in ip dosed BALB/c mouse using prednisone as substrate assessed as reduction of prednisolone production administered 1 hr prior to substrate addition measured after 2 mins post substrate addition by LC/MS/MS analysis; format: functional, organism-based
# [19] = system: Mus musculus; experiment: Inhibition of 11betaHSD1 in BALB/c mouse using prednisone as substrate assessed as remaining prednisolone level at 30 mg/kg, ip administered 1 hr prior to substrate addition measured after 2 mins post substrate addition by LC/MS/MS analysis; format: functional; details: route intraperitoneal
# [20] = system: Mus musculus; experiment: Inhibition of 11betaHSD1 in BALB/c mouse using prednisone as substrate assessed as reduction of prednisolone production at 10 mg/kg, ip administered 1 hr prior to substrate addition measured after 2 mins post substrate addition by LC/MS/MS analysis; format: functional; details: route intraperitoneal
# [21] = system: Mus musculus; experiment: Inhibition of 11betaHSD1 in BALB/c mouse using prednisone as substrate assessed as remaining prednisolone level at 3 mg/kg, ip administered 1 hr prior to substrate addition measured after 2 mins post substrate addition by LC/MS/MS analysis; format: functional; details: route intraperitoneal
# [22] = Plasma concentration in BALB/c mouse at 30 mg/kg, ip administered 1 hr prior to prednisone addition measured after 2 mins post prednisone addition by LC/MS/MS analysis; format: ADME, organism-based; set-up: dose 30 mg/kg, route intraperitoneal
# [23] = Plasma concentration in BALB/c mouse at 3 mg/kg, ip administered 1 hr prior to prednisone addition measured after 2 mins post prednisone addition by LC/MS/MS analysis; format: ADME, organism-based; set-up: dose 3 mg/kg, route intraperitoneal
# Chain of 11-beta-hydroxysteroid dehydrogenase 1 (Mus musculus) (P50172 whole entry, looked up): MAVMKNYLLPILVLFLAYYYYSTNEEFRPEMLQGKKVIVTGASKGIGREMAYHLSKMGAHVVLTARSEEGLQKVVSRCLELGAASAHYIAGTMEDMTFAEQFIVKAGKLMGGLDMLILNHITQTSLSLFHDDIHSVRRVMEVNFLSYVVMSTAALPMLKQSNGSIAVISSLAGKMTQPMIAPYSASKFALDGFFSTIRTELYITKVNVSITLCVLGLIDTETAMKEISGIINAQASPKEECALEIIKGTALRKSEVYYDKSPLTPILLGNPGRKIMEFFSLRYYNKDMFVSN
# T1 sequence (P50172 whole entry): as the sequence (P50172 whole entry, looked up) above
SMILES,microsomal CLint [1] [µL/min/mg],inhibition [2] [%],pIC50 [3],further results
Cc1c(Cl)cccc1S(=O)(=O)N1CCC[C@]1(C)C(=O)NC1CCCCC1,140,9.2,,
CN(C)c1cccc2c(S(=O)(=O)N3CCC[C@]3(C)C(=O)N[C@H]3C4CC5CC3C[C@](O)(C5)C4)cccc12,148,31,,
CC[C@]1(C(=O)N[C@H]2C3CC4CC2C[C@](O)(C4)C3)CCCN1S(=O)(=O)c1cccc2cccnc12,,,6.79,
C[C@]1(C(=O)N[C@H]2C3CC4CC2C[C@](O)(C4)C3)CCCN1S(=O)(=O)c1cccs1,15,,6.95,
Cc1c(Cl)cccc1S(=O)(=O)N1CCC[C@]1(C)C(=O)N[C@H]1C2CC3CC1C[C@](O)(C3)C2,106,,8.89,clearance [4]: 90 mL/min/kg; half-life [5]: 14 min; pIC50 [6]: 10.00; bioavailability [7]: 9.1%; Vd [8]: 0.51 L/kg; pIC50 [9]: 6.92; bioavailability [10]: 63%; AUC(0-t) [11]: 597 ng·h/mL; pIC50 [12]: 5.66
C[C@]1(C(=O)N[C@H]2C3CC4CC2C[C@](O)(C4)C3)CCCN1S(=O)(=O)c1ccc(C#N)cc1Cl,134,,6.84,
C[C@]1(C(=O)N[C@H]2C3CC4CC2C[C@](O)(C4)C3)CCCN1S(=O)(=O)c1cccnc1,55,17,,
CC(O)(c1ccc(S(=O)(=O)N2CCC[C@]2(C)C(=O)N[C@H]2C3CC4CC2C[C@](C#N)(C4)C3)cc1)C(F)(F)F (stereo not given in full),,9.5,,
C[C@]1(C(=O)N[C@H]2C3CC4CC2C[C@](O)(C4)C3)CCCN1S(=O)(=O)c1ccc(Br)s1,57,,7.01,
COC(=O)[C@]12CC3CC(C1)[C@@H](NC(=O)[C@@]1(C)CCCN1S(=O)(=O)c1ccc(C(C)(O)C(F)(F)F)cc1)C(C3)C2 (stereo not given in full),,14,,
CC(=O)c1ccc(S(=O)(=O)N2CCC[C@]2(C)C(=O)N[C@H]2C3CC4CC2C[C@](O)(C4)C3)cc1,12,16,,
CC(C)(C)c1ccc(S(=O)(=O)N2CCC[C@]2(C)C(=O)N[C@H]2C3CC4CC2C[C@](O)(C4)C3)cc1,,12,,
Cc1c(Cl)cccc1S(=O)(=O)N1CCC[C@]1(C)C(=O)NC12CC3CC(CC(O)(C3)C1)C2,,18,,inhibition [13]: 35%
Cc1c(Cl)cccc1S(=O)(=O)N1CCC[C@@H]1C(=O)NC1CCCCC1,430,,,
C[C@]1(C(=O)N[C@H]2C3CC4CC2C[C@](O)(C4)C3)CCCN1S(=O)(=O)c1ccccc1C#N,,,6.90,
C[C@]1(C(=O)N[C@H]2C3CC4CC2C[C@](O)(C4)C3)CCCN1S(=O)(=O)c1ccc(-c2ccccc2)cc1,87,37,,
COC(=O)[C@H]1CC2COCC(C1)[C@H]2NC(=O)[C@@]1(C)CCCN1S(=O)(=O)c1cccc(Cl)c1C,,33,,
C=CC[C@]1(C(=O)N[C@H]2C3CC4CC2C[C@](O)(C4)C3)CCCN1S(=O)(=O)c1cccc2cccnc12,,,7.06,inhibition [13]: 33%
Cc1c(Cl)cccc1S(=O)(=O)N1CCC[C@@]1(C)C(=O)N[C@H]1C2CC3CC1C[C@](O)(C3)C2,,,7.20,pIC50 [6]: 8.51
Cc1c(Cl)cccc1S(=O)(=O)N1CCC[C@]1(C)C(=O)N[C@H]1CC[C@H](O)CC1,,13,,
CC(O)(c1ccc(S(=O)(=O)N2CCC[C@]2(C)C(=O)N[C@H]2C3CC4CC2C[C@](O)(C4)C3)cc1)C(F)(F)F (stereo not given in full),64,26,,
CO[C@H]1CC[C@H](NC(=O)[C@@]2(C)CCCN2S(=O)(=O)c2cccc(Cl)c2C)CC1,,15,,inhibition [13]: 37%
Cc1c(Cl)cccc1S(=O)(=O)N1CCC[C@]1(C)C(=O)NC1C2CC3CC(C2)CC1C3 (stereo not given in full),499,,7.19,
COc1ccc(S(=O)(=O)N2CCC[C@]2(C)C(=O)N[C@H]2C3CC4CC2C[C@](O)(C4)C3)cc1OC,132,3,,
C[C@]1(C(=O)N[C@H]2C3CC4CC2C[C@](O)(C4)C3)CCCN1S(=O)(=O)c1cccc2cccnc12,51,,7.96,inhibition in vivo at 30 mg/kg [14]: 89%; clearance [4]: 60 mL/min/kg; inhibition in vivo at 3 mg/kg [15]: 34%; Activity [16]: 29%; half-life [5]: 14 min; concentration at 2 min [17]: 80 ng/mL; inhibition [18]: Dose-dependent effect; Activity [19]: 11%; inhibition in vivo at 10 mg/kg [20]: 71%; Activity [21]: 66%; pIC50 [6]: 8.11; bioavailability [7]: 3%; concentration at 62 min [22]: 94 ng/mL; Vd [8]: 0.63 L/kg; pIC50 [9]: 7.96; concentration at 2 min [23]: 28 ng/mL; bioavailability [10]: 33%; AUC(0-t) [11]: 939 ng·h/mL; pIC50 [12]: < 5.00
